In assay [1] the target is T1, σ2 receptor (Rattus norvegicus, UniProt Q5U3Y7).
T1 sequence (Q5U3Y7 1-176): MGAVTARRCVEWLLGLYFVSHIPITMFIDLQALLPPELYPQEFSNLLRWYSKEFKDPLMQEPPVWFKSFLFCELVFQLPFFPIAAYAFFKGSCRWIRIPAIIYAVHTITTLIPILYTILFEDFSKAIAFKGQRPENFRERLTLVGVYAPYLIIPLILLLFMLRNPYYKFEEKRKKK
The experiment in a line: σ2 receptor competitive radioligand binding assay with [3H]DTG, σ1 masked with (+)-pentazocine. To be noted: for Ki: K i [nM]±SEM σ2, [3H]DTG, rat liver homogenate, mean of 3 experiments; for inhibition at 1 µM: read-out: inhibition of the radioligand, σ2, 1 μM of the test compound; for inhibition at 1 µM / inhibition of the radioligand, σ2: [3H]DTG, rat liver; for inhibition of the radioligand, σ2: 1 μM of the test compound, 1 µM.

In assay [2] the target is σ1 receptor (Cavia porcellus, UniProt Q60492). The experiment in a line: σ1 receptor competitive radioligand binding assay with [3H]-(+)-pentazocine. The conditions noted are these: for Ki: K i [nM]±SEM σ1, [3H]-(+)-pentazocine, guinea pig brain homogenate, mean of 3 experiments; for inhibition at 1 µM: read-out: inhibition of the radioligand, σ1.
σ1 receptor (Cavia porcellus, UniProt Q60492), sequence (Q60492 whole entry): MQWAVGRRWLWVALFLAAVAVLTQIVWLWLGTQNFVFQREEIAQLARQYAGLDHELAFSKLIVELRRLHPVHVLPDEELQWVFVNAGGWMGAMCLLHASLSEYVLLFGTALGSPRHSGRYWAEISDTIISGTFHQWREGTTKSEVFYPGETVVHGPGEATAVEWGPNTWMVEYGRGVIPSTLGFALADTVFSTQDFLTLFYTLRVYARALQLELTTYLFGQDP
Assay [3] has as its target σ1 receptor. The conditions noted are these: cited from earlier work.

The text below walks through data of article PMC8048568, “Synthesis of σ Receptor Ligands with a Spirocyclic System Connected with a Tetrahydroisoquinoline Moiety via Different Linkers” (Chemmedchem, 2021).

Where two headings read alike, the source gives them in different places.

As usually defined, the inhibition is the drop in the measured response relative to a control, in per cent.

As to `COc1cc2c(cc1OC)CN(CCN1CCC3(CC1)OC(OC)Cc1ccccc13)CC2` (centres unmarked) [Compound 30, 1′‐[2‐(6,7‐Dimethoxy‐3,4‐dihydroisoquinolin‐2(1H)‐yl)ethyl]‐3‐methoxy‐3,4‐dihydrospiro[[2]benzopyran‐1,4′‐piperidine]], the Ki is 348 nM in assay [1] and 608 nM in assay [2].
Consider `COc1cc2c(cc1OC)CN(C(=O)CN1CCC3(CC1)OC(OC)c1ccccc13)CC2` (centres unmarked) [Compound 23, 1‐(6,7‐Dimethoxy‐3,4‐dihydroisoquinolin‐2(1H)‐yl)‐2‐{3‐methoxy‐3H‐spiro[[2]benzofuran‐1,4′‐piperidin]‐1′‐yl}ethan‐1‐one], for which the inhibition at 1 µM in assay [1] and in assay [2] was 0% in each case.
Consider `COc1cc2c(cc1OC)CN(CC(=O)NC1CCC3(CC1)OC(OC)Cc1ccccc13)CC2` (stereo not drawn) [cis‐26, cis‐2‐(6,7‐Dimethoxy‐3,4‐dihydroisoquinolin‐2(1H)‐yl)‐N‐(3‐methoxy‐3,4‐dihydrospiro[[2]benzopyran‐1,1′‐cyclohexan]‐4′‐yl)acetamide], for which the values for the Ki in assay [1] and in assay [2] were 371 nM and 1000 nM, respectively.
For the compound `COc1cc2c(cc1OC)CN(C(=O)CNC1CCC3(CC1)OC(OC)Cc1ccccc13)CC2` (stereo not drawn) [cis‐22, cis‐1‐(6,7‐Dimethoxy‐3,4‐dihydroisoquinolin‐2(1H)‐yl)‐2‐[N‐(3‐methoxy‐3,4‐dihydrospiro[[2]benzopyran‐1,1′‐cyclohexan]‐4′‐yl)amino]ethan‐1‐one], the inhibition at 1 µM in assay [1] came to 11%. In assay [2], this compound displayed a Ki of 740 nM.
In the case of `COc1cc2c(cc1OC)CN(CC(=O)N1CCC3(CC1)OC(OC)Cc1ccccc13)CC2` (centres unmarked) [Compound 25, 2‐(6,7‐Dimethoxy‐3,4‐dihydroisoquinolin‐2(1H)‐yl)‐1‐(3‐methoxy‐3,4‐dihydrospiro[[2]benzopyran‐1,4′‐piperidin]‐1′‐yl)ethan‐1‐one], the Ki in assay [1] was found to be 534 nM; in assay [2], 518 nM.
As to `COc1cc2c(cc1OC)CN(C(=O)CNC1CCC3(CC1)OC(OC)c1ccccc13)CC2` (stereo not drawn) [trans‐24, trans‐1‐(6,7‐Dimethoxy‐3,4‐dihydroisoquinolin‐2(1H)‐yl)‐2‐[N‐(3‐methoxy‐3H‐spiro[[2]benzofuran‐1,1′‐cyclohexan]‐4′‐yl)amino]ethan‐1‐one], the “inhibition of the radioligand, σ2” value in assay [1] turned out to be 0%. Also, the inhibition at 1 µM in assay [2] came to 15%.
Turning to `COc1cc2c(cc1OC)CN(C(=O)CNC1CCC3(CC1)OC(OC)c1ccccc13)CC2` (stereo not drawn) [cis‐24, cis‐1‐(6,7‐Dimethoxy‐3,4‐dihydroisoquinolin‐2(1H)‐yl)‐2‐[N‐(3‐methoxy‐3H‐spiro[[2]benzofuran‐1,1′‐cyclohexan]‐4′‐yl)amino]ethan‐1‐one], the “inhibition of the radioligand, σ2” value in assay [1] was 9%. In assay [2], this compound returned a Ki of 1600 nM.
Regarding `COc1cccc2c1CCCC2CCCN1CCN(C2CCCCC2)CC1` (centres unmarked) [PB28], the Ki in assay [3] (read-out: K i σ1 subtype) was […].
As for `COc1cc2c(cc1OC)CN(CCCC(=O)NC1CCC3(CC1)OC(OC)Cc1ccccc13)CC2` (stereo not drawn) [cis‐27, cis‐4‐(6,7‐Dimethoxy‐3,4‐dihydroisoquinolin‐2(1H)‐yl)‐N‐(3‐methoxy‐3,4‐dihydrospiro[[2]benzopyran‐1,1′‐cyclohexan]‐4′‐yl)butanamide], the Ki is 2100 nM in assay [1] and 712 nM in assay [2].
Regarding `COc1cc2c(cc1OC)CN(CC(=O)N1CCC3(CC1)OC(OC)c1ccccc13)CC2` (centres unmarked) [Compound 28, 2‐(6,7‐Dimethoxy‐3,4‐dihydroisoquinolin‐2(1H)‐yl)‐1‐{3‐methoxy‐3H‐spiro[[2]benzofuran‐1,4′‐piperidin]‐1′‐yl}ethan‐1‐one], the Ki in assay [1] amounted to 3400 nM. In addition, in assay [2], the inhibition at 1 µM came to 19%.
`COc1cc2c(cc1OC)CN(C(=O)CN1CCC3(CC1)OC(OC)Cc1ccccc13)CC2` (centres unmarked) [Compound 21, 1‐(6,7‐Dimethoxy‐3,4‐dihydroisoquinolin‐2(1H)‐yl)‐2‐{3‐methoxy‐3,4‐dihydrospiro[[2]benzopyran‐1,4′‐piperidin]‐1′‐yl}ethan‐1‐one]: the inhibition at 1 µM in assay [1] was determined as 19%. This compound also came in with a Ki in assay [2] of 319 nM.
`COc1cc2c(cc1OC)CN(CCNC1CCC3(CC1)OC(OC)Cc1ccccc13)CC2` (stereo not drawn) [cis‐31, cis‐N‐[2‐(6,7‐Dimethoxy‐3,4‐dihydroisoquinolin‐2(1H)‐yl)ethyl]‐3‐methoxy‐3,4‐dihydrospiro[[2]benzopyran‐1,1′‐cyclohexan]‐4′‐amine]: the Ki is 200 nM in assay [1] and 251 nM in assay [2].
As to `COc1cc2c(cc1OC)CN(CC(=O)NC1CCC3(CC1)OC(OC)c1ccccc13)CC2` (stereo not drawn) [cis‐29, cis‐2‐(6,7‐Dimethoxy‐3,4‐dihydroisoquinolin‐2(1H)‐yl)‐N‐(3‐methoxy‐3H‐spiro[[2]benzofuran‐1,1′‐cyclohexan]‐4′‐yl)acetamide], the inhibition at 1 µM in assay [1] came out at 0%. The Ki in assay [2] is 129 nM.
As for `COc1cc2c(cc1OC)CN(CC(=O)NC1CCC3(CC1)OC(OC)c1ccccc13)CC2` (stereo not drawn) [trans‐29, trans‐2‐(6,7‐Dimethoxy‐3,4‐dihydroisoquinolin‐2(1H)‐yl)‐N‐(3‐methoxy‐3H‐spiro[[2]benzofuran‐1,1′‐cyclohexan]‐4′‐yl)acetamide], the Ki amounted to 1900 nM in assay [1] and 1300 nM in assay [2].
Consider `Fc1ccc(-n2cc(CCCCN3CCC4(CC3)OCc3ccccc34)c3ccccc32)cc1` [siramesine], for which the Ki in assay [3] (read-out: K i σ1 receptor) was 17 nM.
For `COc1cc2c(cc1OC)CN(CC(=O)NC1CCC3(CC1)OC(OC)Cc1ccccc13)CC2` (stereo not drawn) [trans‐26, trans‐2‐(6,7‐Dimethoxy‐3,4‐dihydroisoquinolin‐2(1H)‐yl)‐N‐(3‐methoxy‐3,4‐dihydrospiro[[2]benzopyran‐1,1′‐cyclohexan]‐4′‐yl)acetamide], the inhibition at 1 µM in assay [1] turned out to be 4%; in assay [2], 7%.
Turning to `COc1cc2c(cc1OC)CN(CCNC1CCC3(CC1)OC(OC)Cc1ccccc13)CC2` (stereo not drawn) [trans‐31, trans‐N‐[2‐(6,7‐Dimethoxy‐3,4‐dihydroisoquinolin‐2(1H)‐yl)ethyl]‐3‐methoxy‐3,4‐dihydrospiro[[2]benzopyran‐1,1′‐cyclohexan]‐4′‐amine], the results for the Ki in assay [1] and in assay [2] were 499 nM and 1400 nM, respectively.
